Our source for the Activity, IC50 and inhibition values is ChEMBL document CHEMBL6121021, “Design and Synthesis of Topoisomerases-Histone Deacetylase Dual Targeted Quinoline-Bridged Hydroxamates as Anticancer Agents” (J Med Chem, 2025).

For assay [1], the system named is A549. In words: Induction of ROS generation in human A549 cells incubated for 48 hrs by DCFH-DA staining based analysis. The class given is functional, cell-based.
The next assay has as its target T1, Histone deacetylase 8 (Homo sapiens, UniProt Q9BY41).
T1 sequence (Q9BY41 whole entry): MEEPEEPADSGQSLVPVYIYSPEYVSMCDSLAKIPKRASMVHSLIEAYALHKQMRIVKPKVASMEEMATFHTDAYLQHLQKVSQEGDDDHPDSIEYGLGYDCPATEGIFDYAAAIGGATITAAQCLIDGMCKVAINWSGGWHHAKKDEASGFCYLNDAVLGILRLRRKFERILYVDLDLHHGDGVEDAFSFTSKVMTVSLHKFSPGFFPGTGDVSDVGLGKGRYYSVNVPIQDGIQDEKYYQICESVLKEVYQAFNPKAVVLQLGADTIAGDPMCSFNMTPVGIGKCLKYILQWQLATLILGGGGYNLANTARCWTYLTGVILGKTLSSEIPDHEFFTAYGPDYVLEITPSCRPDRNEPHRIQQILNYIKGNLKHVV
Kind of assay: Inhibition of HDAC8 (unknown origin) by fluorometric assay.

The subject of assay [2] is A549. Kind of assay: Effect on mitochondrial membrane permeability in human A549 cells assessed as decrease in red to green fluorescence ratio at sub-IC50 incubated for 48 hrs by JC-1 staining based analysis. It is filed as functional, cell-based.
The target in assay [3] is T2, DNA topoisomerase 1 (Homo sapiens) (UniProt P11387).
T2 sequence (whole entry): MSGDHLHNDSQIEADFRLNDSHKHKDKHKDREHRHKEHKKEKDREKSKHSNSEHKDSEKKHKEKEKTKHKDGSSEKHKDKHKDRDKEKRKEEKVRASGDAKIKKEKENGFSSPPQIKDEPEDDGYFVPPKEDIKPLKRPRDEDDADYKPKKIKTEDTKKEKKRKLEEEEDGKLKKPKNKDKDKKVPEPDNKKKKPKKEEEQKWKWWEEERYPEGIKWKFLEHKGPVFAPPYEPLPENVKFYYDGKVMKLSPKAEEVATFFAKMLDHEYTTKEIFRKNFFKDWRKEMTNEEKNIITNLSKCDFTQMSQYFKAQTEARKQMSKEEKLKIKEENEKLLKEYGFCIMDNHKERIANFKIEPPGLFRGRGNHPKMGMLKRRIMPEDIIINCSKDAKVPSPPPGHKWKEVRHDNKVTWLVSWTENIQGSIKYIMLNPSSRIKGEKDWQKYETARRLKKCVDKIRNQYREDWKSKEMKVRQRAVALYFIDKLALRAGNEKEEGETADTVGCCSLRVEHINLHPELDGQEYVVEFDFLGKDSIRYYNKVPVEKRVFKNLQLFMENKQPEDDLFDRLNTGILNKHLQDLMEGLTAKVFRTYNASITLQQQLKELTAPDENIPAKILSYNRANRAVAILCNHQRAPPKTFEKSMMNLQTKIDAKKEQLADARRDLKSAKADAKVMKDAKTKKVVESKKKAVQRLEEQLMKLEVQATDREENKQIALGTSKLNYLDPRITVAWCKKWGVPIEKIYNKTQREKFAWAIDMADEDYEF
In words: Inhibition of human Topo I-mediated relaxation of supercoiled DNA preincubated for 30 mins followed by proteinase K addition measured after 30 mins by gel electrophoresis. The note with it: time 60.0 min.

The test system of another assay is NCI-H1299. Kind of assay: cells. The note with it: Homo sapiens, NCI-H1299, 48 h. It is filed as functional, cell-based.
The target of the next assay is Histone deacetylase 1 (Homo sapiens, UniProt Q13547). In words: Inhibition of HDAC1 extracted from human A549 nucleus incubated for 1 hr by fluorometric assay. It is filed as cell-free.
Histone deacetylase 1, sequence (Q13547 whole entry): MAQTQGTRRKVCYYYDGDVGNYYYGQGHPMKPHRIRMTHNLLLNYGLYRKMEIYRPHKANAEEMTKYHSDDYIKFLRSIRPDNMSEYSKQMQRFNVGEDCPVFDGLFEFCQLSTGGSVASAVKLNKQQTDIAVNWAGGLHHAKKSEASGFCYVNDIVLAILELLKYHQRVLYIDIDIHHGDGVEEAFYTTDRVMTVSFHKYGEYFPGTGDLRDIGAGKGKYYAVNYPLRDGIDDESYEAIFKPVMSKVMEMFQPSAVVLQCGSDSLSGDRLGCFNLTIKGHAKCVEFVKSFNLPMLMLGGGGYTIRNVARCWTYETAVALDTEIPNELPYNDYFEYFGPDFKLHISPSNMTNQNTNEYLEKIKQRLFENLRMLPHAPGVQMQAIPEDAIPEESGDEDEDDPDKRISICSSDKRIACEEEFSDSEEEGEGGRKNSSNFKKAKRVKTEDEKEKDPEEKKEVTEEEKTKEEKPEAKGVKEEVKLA
Assay [4] deals with T3, Protein deacetylase HDAC6 (Homo sapiens, UniProt Q9UBN7).
T3 sequence (Q9UBN7 whole entry): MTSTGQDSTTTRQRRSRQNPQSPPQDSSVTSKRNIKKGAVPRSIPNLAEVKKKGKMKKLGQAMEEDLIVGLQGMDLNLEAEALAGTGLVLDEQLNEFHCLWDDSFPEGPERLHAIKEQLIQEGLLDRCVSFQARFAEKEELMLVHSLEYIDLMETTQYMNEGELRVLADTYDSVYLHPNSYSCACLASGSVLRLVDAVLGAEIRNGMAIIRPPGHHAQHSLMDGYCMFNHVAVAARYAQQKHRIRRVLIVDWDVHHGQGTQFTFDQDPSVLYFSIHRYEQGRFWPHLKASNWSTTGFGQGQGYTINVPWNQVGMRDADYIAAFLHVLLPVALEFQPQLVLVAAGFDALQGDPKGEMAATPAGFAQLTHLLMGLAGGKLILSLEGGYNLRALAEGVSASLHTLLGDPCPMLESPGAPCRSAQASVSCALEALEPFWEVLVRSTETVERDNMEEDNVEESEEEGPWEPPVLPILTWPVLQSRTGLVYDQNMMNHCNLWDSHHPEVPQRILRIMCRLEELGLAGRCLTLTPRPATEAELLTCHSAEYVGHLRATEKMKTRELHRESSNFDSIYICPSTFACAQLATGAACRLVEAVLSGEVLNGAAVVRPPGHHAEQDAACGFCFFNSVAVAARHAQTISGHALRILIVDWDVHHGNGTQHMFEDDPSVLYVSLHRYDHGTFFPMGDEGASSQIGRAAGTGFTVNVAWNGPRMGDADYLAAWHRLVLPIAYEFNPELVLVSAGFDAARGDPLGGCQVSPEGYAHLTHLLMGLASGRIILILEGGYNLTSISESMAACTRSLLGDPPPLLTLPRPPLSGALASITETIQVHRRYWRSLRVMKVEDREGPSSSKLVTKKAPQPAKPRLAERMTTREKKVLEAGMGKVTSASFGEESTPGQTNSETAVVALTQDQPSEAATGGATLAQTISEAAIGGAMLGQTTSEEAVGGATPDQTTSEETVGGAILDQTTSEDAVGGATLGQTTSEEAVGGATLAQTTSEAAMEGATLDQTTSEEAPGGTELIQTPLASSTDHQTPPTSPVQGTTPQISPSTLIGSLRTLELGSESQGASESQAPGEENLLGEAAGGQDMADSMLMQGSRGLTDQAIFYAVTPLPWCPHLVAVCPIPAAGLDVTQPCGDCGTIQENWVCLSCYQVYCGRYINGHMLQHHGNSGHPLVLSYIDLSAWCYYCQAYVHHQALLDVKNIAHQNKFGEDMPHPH
Kind of assay: Inhibition of HDAC6 (unknown origin) using acetylated-peptide substrate by fluorometric assay.

For assay [5], the system named is A549. Kind of assay: Anti-cancer activity against human A549 3D cell culture model assessed as inhibition of 3D culture initiation at sub- IC50 incubated for 21 days with replacement of medium containing compound on every seventh day. The class given is functional, cell-based. The note with it: time 21.0 day.
A further assay deals with Supercoiled DNA. In words: Binding affinity to supercoiled DNA (unknown origin) assessed as DNA intercalation measured after 30 mins by gel electrophoresis. It is filed as nucleic-acid assay.
In another assay the test system is HT-29. In words: cells. It is filed as functional, cell-based. The conditions noted are these: Homo sapiens, HT-29, 48 h.
Assay [6] concerns MDA-MB-231. Kind of assay: Anti-cancer activity against human MDA-MB-231 cells assessed as increase in let7a mRNA level by qPCR analysis. It is filed as functional, cell-based. (In general: In qPCR the cycle at which signal appears reflects the starting amount.)
Assay [7] concerns MDA-MB-231. In words: cells. The class given is functional, cell-based. The note with it: Homo sapiens, MDA-MB-231, 48 h.

Structures are written as SMILES. pIC50: −log10 of the molar value. Calls of active or inactive are those of the source. The calls are words filed in the database; no cut-off is given here.

For the compound `COc1ccc(-c2ccc3cc(OCCCCCC(=O)NO)ccc3n2)cc1`, the result in the assay with A549 [1] and in the assay with MDA-MB-231 [6] was Active. Besides, the pIC50 (usually −log10 of the IC50, conventionally taken in molar units) is less than 6.30 against Histone deacetylase 8; 5.77 in the assay with NCI-H1299; 7.92 at Histone deacetylase 1; 7.64 in [4]; 5.24 with HT-29; 6.06 in the assay on MDA-MB-231 [7]. Besides, the Activity result in the assay on A549 [2] is recorded as “Active; Result Signifies That Cell Death Induced Via Mitochondrial-Dependent Pathways”. In addition, the inhibition entry (in assay [3]; with A549 [5]) was “Active” in each case. The result in the assay on Supercoiled DNA was inactive.
For `COc1ccc(-c2ccc3ccc(OCCCCCCC(=O)NO)cc3n2)cc1I`, the result in the assay with A549 [1] and with MDA-MB-231 [6] was Active. Further, the pIC50 at Histone deacetylase 8 is less than 6.30; in the assay with NCI-H1299, 5.79; against Histone deacetylase 1 it was 7.44; in assay [4], 6.86; in the assay on HT-29 it was 5.73; with MDA-MB-231 [7], 5.81. The Activity result in the assay with A549 [2] was “Not active; Result Signifies That Cell Death Induced Via Mitochondrial-Independent Pathways”. Besides, the inhibition result (in assay [3]; in the assay on A549 [5]) was “Active” throughout. Besides, the outcome in the assay on Supercoiled DNA was inactive.
